What was measured:
[1] = system: Sprague–Dawley rats; assay: Dose-range finding study in rats, hematology; type: in vivo, rat; set-up: red cell distribution width (RDW): unit not given here; conditions: for ERY / HCT / HGB / LEU / LYM / LYM (%) / MCH / MCHC / MCV / MON / MON (%) / MPV / NEU / NEU (%) / PCT / PDWc / PDWs / PLT / RDWc / RDWs: day 8
Description: (§1) TPT-004 was formulated in 0.5% (w/v) CMC-Na in water and administered by oral gavage (PO) twice daily (b.i.d.) with a 12 h interval to the treatment groups (3 male and 3 female Sprague–Dawley rats each) for 8 days (15 successive applications). Rats were dosed with 10, 45, and 200 mg/kg, i.e., daily doses of 20, 90, and 400 mg/kg. In addition, a control group was dosed at the same frequency as the vehicle (0.5% CMC-Na).
(§2) A blood sample of 100 μL was obtained from each rat by puncturing one of the lateral tail veins under short isoflurane anesthesia. Blood was collected in tubes containing lithium heparin and gently mixed. After centrifugation (10 min at 3000g, 4 °C), plasma was separated and stored at −20 °C until LC-MS analysis. In addition, on day 8, the rats were exsanguinated by cardiac puncture under isoflurane anesthesia. A volume of 100 μL of blood (K3-EDTA) was used for immediate cell blood count, while the rest of the blood was mixed with lithium heparin and centrifuged to generate plasma for clinical chemistry analysis.

[2] = system: MC38 colorectal carcinoma model; conditions: mouse colorectal carcinoma; previous study; cited from earlier work
[3] = system: mice; conditions: 14 days repeated oral treatment, 10 or 50 mg/kg BID, previous study; cited from earlier work
[4] = system: Sprague–Dawley rats; assay: Dose-range finding study in rats, clinical chemistry; type: in vivo, rat; conditions: for ALT (GPT) / Albumin / Albumin/ globulin ratio / Alkaline phosphatase / Bile acids / Bilirubin total / Calcium / Chloride / Cholesterol / Creatine kinase / Creatinine / GLDH / Globulin / Glucose / Inorganic phosphate / Potassium / Sodium / Total protein / Triglycerides / Urea (BUN): day 8
Description: as §1, §2

[5] = 10, 45, or 200 mg/kg BID PO, 8 days

SMILES: CCn1c(=O)[nH]c(=O)c2c1nc(Cc1cn3cc(C)sc3n1)n2CC1COC1 [TPT-004]
- ERY ([1]; 10 mg/kg PO BID): 8.15e+12 L⁻¹
- HCT ([1]; 10 mg/kg PO BID): 49.64%
- HGB ([1]; 10 mg/kg PO BID): 13.9 g/dL
- LEU ([1]; 10 mg/kg PO BID): 1.308e+10 L⁻¹
- LYM ([1]; 10 mg/kg PO BID): 1.091e+10 L⁻¹
- LYM (%) ([1]; 10 mg/kg PO BID): 82.8%
- MCH ([1]; 10 mg/kg PO BID): 17.1 pg
- MCHC ([1]; 10 mg/kg PO BID): 28.0 g/dL
- MCV ([1]; 10 mg/kg PO BID): 61 fL
- MON ([1]; 10 mg/kg PO BID): 5.8e+08 L⁻¹
- MON (%) ([1]; 10 mg/kg PO BID): 4.0%
- MPV ([1]; 10 mg/kg PO BID): 8.2 fL
- NEU ([1]; 10 mg/kg PO BID): 1.59e+09 L⁻¹
- NEU (%) ([1]; 10 mg/kg PO BID): 13.3%
- PCT ([1]; 10 mg/kg PO BID): 0.15%
- PDWc ([1]; 10 mg/kg PO BID): 33.7%
- PDWs ([1]; 10 mg/kg PO BID): 12.3 fL
- PLT ([1]; 10 mg/kg PO BID): 1.69e+11 L⁻¹
- RDWc ([1]; 10 mg/kg PO BID): 16.4%
- RDWs ([1]; 10 mg/kg PO BID): 37.6 fL
- ERY ([1]; 45 mg/kg PO BID): 8.12e+12 L⁻¹
- HCT ([1]; 45 mg/kg PO BID): 48.67%
- HGB ([1]; 45 mg/kg PO BID): 14.0 g/dL
- LEU ([1]; 45 mg/kg PO BID): 1.748e+10 L⁻¹
- LYM ([1]; 45 mg/kg PO BID): 1.446e+10 L⁻¹
- LYM (%) ([1]; 45 mg/kg PO BID): 82.7%
- MCH ([1]; 45 mg/kg PO BID): 17.3 pg
- MCHC ([1]; 45 mg/kg PO BID): 28.8 g/dL
- MCV ([1]; 45 mg/kg PO BID): 60 fL
- MON ([1]; 45 mg/kg PO BID): 1.07e+09 L⁻¹
- MON (%) ([1]; 45 mg/kg PO BID): 6.2%
- MPV ([1]; 45 mg/kg PO BID): 8.3 fL
- NEU ([1]; 45 mg/kg PO BID): 1.95e+09 L⁻¹
- NEU (%) ([1]; 45 mg/kg PO BID): 11.1%
- PCT ([1]; 45 mg/kg PO BID): 0.08%
- PDWc ([1]; 45 mg/kg PO BID): 36.1%
- PDWs ([1]; 45 mg/kg PO BID): 13.9 fL
- PLT ([1]; 45 mg/kg PO BID): 1.04e+11 L⁻¹
- RDWc ([1]; 45 mg/kg PO BID): 17.2%
- RDWs ([1]; 45 mg/kg PO BID): 38.7 fL
- red cell distribution width (RDW) ([1]; 200 mg/kg BID, vehicle 16.4 ± 0.8, p = 0.0109): 19.3 ± 1.6
- ERY ([1]; 200 mg/kg PO BID): 8.03e+12 L⁻¹
- HCT ([1]; 200 mg/kg PO BID): 45.70%
- HGB ([1]; 200 mg/kg PO BID): 13.1 g/dL
- LEU ([1]; 200 mg/kg PO BID): 1.534e+10 L⁻¹
- LYM ([1]; 200 mg/kg PO BID): 1.263e+10 L⁻¹
- LYM (%) ([1]; 200 mg/kg PO BID): 82.9%
- MCH ([1]; 200 mg/kg PO BID): 16.4 pg
- MCHC ([1]; 200 mg/kg PO BID): 28.7 g/dL
- MCV ([1]; 200 mg/kg PO BID): 57 fL
- MON ([1]; 200 mg/kg PO BID): 7.4e+08 L⁻¹
- MON (%) ([1]; 200 mg/kg PO BID): 4.8%
- MPV ([1]; 200 mg/kg PO BID): 8.3 fL
- NEU ([1]; 200 mg/kg PO BID): 1.97e+09 L⁻¹
- NEU (%) ([1]; 200 mg/kg PO BID): 12.3%
- PCT ([1]; 200 mg/kg PO BID): 0.14%
- PDWc ([1]; 200 mg/kg PO BID): 35.8%
- PDWs ([1]; 200 mg/kg PO BID): 13.7 fL
- PLT ([1]; 200 mg/kg PO BID): 1.79e+11 L⁻¹
- RDWc ([1]; 200 mg/kg PO BID): 19.3%
- RDWs ([1]; 200 mg/kg PO BID): 40.8 fL
- hematology parameters, overall [1, 5]: did not alter the hematology parameters
- number of platelets (PLT), differences to control [1, 5]: these differences were not significant
- dose needed to achieve the therapeutic effects [2]: 50 mg/kg BID
- neuropsychiatric effects in behavioral tests [3]: no neuropsychiatric effects were observed
- ALT (GPT) ([4]; 10 mg/kg PO BID): 49 U/L
- Albumin ([4]; 10 mg/kg PO BID): 31 g/L
- Albumin/ globulin ratio ([4]; 10 mg/kg PO BID): 1.33
- Alkaline phosphatase ([4]; 10 mg/kg PO BID): 402 U/L
- Bile acids ([4]; 10 mg/kg PO BID): 6.3 µmol/L
- Bilirubin total ([4]; 10 mg/kg PO BID): 1.7 µmol/L
- Calcium ([4]; 10 mg/kg PO BID): 2.6 mmol/L
- Chloride ([4]; 10 mg/kg PO BID): 101 mmol/L
- Cholesterol ([4]; 10 mg/kg PO BID): 2.25 mmol/L
- Creatine kinase ([4]; 10 mg/kg PO BID): 406 U/L
- Creatinine ([4]; 10 mg/kg PO BID): 24 µmol/L
- GLDH ([4]; 10 mg/kg PO BID): 7 U/L
- Globulin ([4]; 10 mg/kg PO BID): 23 g/L
- Glucose ([4]; 10 mg/kg PO BID): 11.2 mmol/L
- Inorganic phosphate ([4]; 10 mg/kg PO BID): 2.3 mmol/L
- Potassium ([4]; 10 mg/kg PO BID): 4.7 mmol/L
- Sodium ([4]; 10 mg/kg PO BID): 143 mmol/L
- Total protein ([4]; 10 mg/kg PO BID): 54 g/L
- Triglycerides ([4]; 10 mg/kg PO BID): 1.2 mmol/L
- Urea (BUN) ([4]; 10 mg/kg PO BID): 6.4 mmol/L
- ALT (GPT) ([4]; 45 mg/kg PO BID): 52 U/L
- Albumin ([4]; 45 mg/kg PO BID): 30 g/L
- Albumin/ globulin ratio ([4]; 45 mg/kg PO BID): 1.34
- Alkaline phosphatase ([4]; 45 mg/kg PO BID): 434 U/L
- Bile acids ([4]; 45 mg/kg PO BID): 16.6 µmol/L
- Bilirubin total ([4]; 45 mg/kg PO BID): 1.7 µmol/L
- Calcium ([4]; 45 mg/kg PO BID): 2.7 mmol/L
- Chloride ([4]; 45 mg/kg PO BID): 101 mmol/L
- Cholesterol ([4]; 45 mg/kg PO BID): 2.5 mmol/L
- Creatine kinase ([4]; 45 mg/kg PO BID): 415 U/L
- Creatinine ([4]; 45 mg/kg PO BID): 26 µmol/L
- GLDH ([4]; 45 mg/kg PO BID): 6 U/L
- Globulin ([4]; 45 mg/kg PO BID): 23 g/L
- Glucose ([4]; 45 mg/kg PO BID): 12.3 mmol/L
- Inorganic phosphate ([4]; 45 mg/kg PO BID): 2.4 mmol/L
- Potassium ([4]; 45 mg/kg PO BID): 4.7 mmol/L
- Sodium ([4]; 45 mg/kg PO BID): 142 mmol/L
- Total protein ([4]; 45 mg/kg PO BID): 53 g/L
- Triglycerides ([4]; 45 mg/kg PO BID): 1.7 mmol/L
- Urea (BUN) ([4]; 45 mg/kg PO BID): 6.0 mmol/L
- ALT (GPT) ([4]; 200 mg/kg PO BID): 67 U/L
- Albumin ([4]; 200 mg/kg PO BID): 30 g/L
- Albumin/ globulin ratio ([4]; 200 mg/kg PO BID): 1.32
- Alkaline phosphatase ([4]; 200 mg/kg PO BID): 313 U/L
- Bile acids ([4]; 200 mg/kg PO BID): 20.4 µmol/L
- Bilirubin total ([4]; 200 mg/kg PO BID): 1.7 µmol/L
- Calcium ([4]; 200 mg/kg PO BID): 2.6 mmol/L
- Chloride ([4]; 200 mg/kg PO BID): 101 mmol/L
- Cholesterol ([4]; 200 mg/kg PO BID): 2.6 mmol/L
- Creatine kinase ([4]; 200 mg/kg PO BID): 321 U/L
- Creatinine ([4]; 200 mg/kg PO BID): 24 µmol/L
- GLDH ([4]; 200 mg/kg PO BID): 7 U/L
- Globulin ([4]; 200 mg/kg PO BID): 23 g/L
- Glucose ([4]; 200 mg/kg PO BID): 13.5 mmol/L
- Inorganic phosphate ([4]; 200 mg/kg PO BID): 2.4 mmol/L
- Potassium ([4]; 200 mg/kg PO BID): 4.9 mmol/L
- Sodium ([4]; 200 mg/kg PO BID): 143 mmol/L
- Total protein ([4]; 200 mg/kg PO BID): 53 g/L
- Triglycerides ([4]; 200 mg/kg PO BID): 1.4 mmol/L
- Urea (BUN) ([4]; 200 mg/kg PO BID): 7.0 mmol/L
- clinical chemistry parameters, overall [4, 5]: no relevant difference

From article PMC12171880, “Selectivity and Safety Characterization of a Xanthine–Imidazothiazole Lead Structure: a Novel Tryptophan Hydroxylase Inhibitor of Peripheral Serotonin Synthesis” (ACS Pharmacology & Translational Science, 2025)
